Source: patent US10118943B2, “Compounds and methods for inhibiting cell death” (Ramot at Tel-Aviv University Ltd., priority 2012, dated 2018)
“Also recorded” adds a separate entry of the source.

Experiments:
[1] = test system: PC12 cells; assay: PC12 cell survival assay, zinc toxicity, MTS (Example 1); conditions: 400 μM zinc, 4 hrs, peptide 10^−9M
Procedure: PC12 cells (Pheochromocytoma cells) (ATCC, Bethesda, Md., USA) were seeded at 3×10^4 cells/cm^2 on poly-L-Lysine coated plastic tissue culture dishes (Corning, Lowell, Mass., USA) to form an adherent monolayer. Cells were maintained in Dulbecco's modified Eagle's medium (DMEM) supplemented with 10% horse serum (HS), 5% fetal calf serum (FCS), 2 mM glutamine, 100 U/ml penicillin and […] streptomycin (Biological Industries, Beit Haemek, Israel). PC12 differentiation was induced by nerve growth factor (NGF, Sigma) at concentrations of 50 ng/ml by replacing half of the medium every other day until the cells acquired a differentiated morphology. Differentiated cells were defined as bearing two or more neurites with lengths equal to or more than twice the diameter of the cell body (P. Lamoureux et al., The Journal of cell biology 110, 71 (January, 1990)). The cells were incubated in 5% CO2 in a humidified incubator at 37° C. The cells were sub-cultured every 5 days at a 4:1 split ratio by pipetting. The medium was changed every 2 or 3 days after adhesion.
Transfections were performed using Lipofectamine RNAiMAX (Invitrogen). Transfection was carried out according to manufacturer's protocol. For rat MAPRE3 knockdown, PC12 cells or neurons were plated in growth medium without antibiotics at concentration of 10^4 cells/0.32 cm^2 such that they will be 30-50% confluent at the time of transfection. To obtain the highest transfection efficiency and low non-specific effects, siRNA transfection was performed in the following optimized conditions: 50 nM for neurons and 25 nM PC12 of each siRNA construct with 0.2 μl Lipofectamine RNAiMAX (Invitrogen) was added per well of the 96-well plate and scaled up for different 24 or 6-well plates, according to the manufacturer's instructions. The medium was changed one day after transfection. 48 and 72 hours later, cells were harvested to assay for gene knockdown at the RNA and protein levels.
The cells were incubated for 4 hrs at 37° C. 5% CO2. Survival was measured using the MTS assay.
Metabolic activity of cells was measured by the CellTiter 96® Aqueous Non-Radioactive Cell Proliferation kit in accordance with the manufacturer's instructions (Promega). The assay uses a colorimetric method for determining the number of viable cells employing a tetrazolium compound [3-(4,5-dimethylthiazol-2-yl)-5-(3-carboxymethoxyphenyl)-2-(4-sulfophenyl)-2H-tetrazolium, MTS] and an electron-coupling reagent, phenazine methosulfate (PMS). MTS is bio-reduced by cells into a formazan product that is detected at 490 nm. The conversion of MTS into the formazan form is accomplished by dehydrogenase enzymes found in metabolically active cells. Thus, the quantity of formazan product as measured by the amount of 490 nm absorbance is directly proportional to the number of living cells in culture (A. H. Cory, T. C. Owen, J. A. Barltrop, J. G. Cory, Cancer Commun 3, 207 (July, 1991)).

[2] = biological target: T1, full-length human EB3 recombinant protein (Homo sapiens, UniProt Q9UPY8); assay: Sulfolink coupling gel-NAP affinity chromatography with recombinant EB3, western analysis; format: binding; conditions: 2 mg soluble peptide incubated with recombinant EB3 and column beads
T1 construct: Full-length human EB3 was subcloned into pEX-N-His vector; 6xHis (N, cleaved yes); made in house; host or cells: E. coli BL21(DE3)
Procedure: (§1) Column load, flow through, wash and elution fractions were further analyzed by polyacrylamide gel electrophoresis, followed by western analysis with EB3 antibodies. […] Column chromatography, elution and western blots were performed as above. The extract fractions (flow, wash and elution) were separated by electrophoresis followed by protein detection (FIG. 6).

[3] = test system: primary cortical neurons; assay: PSD-95 density in primary cortical neuron culture; format: cell-based, rat; conditions: neurons treated for 2 hrs
Procedure: Methods: 1. Primary cultures of neurons were prepared as follows. Newborn rats were sacrificed on postnatal day 1. Cerebral cortex tissue was then dissected and dissociated individually from each pup with the Papain Dissociation System (PDS; Worthington Biochemical Corporation) according to the manufacturer's instructions. 2. Cells were fixed with ice cold methanol, blocked with 2% bovine serum albumin (BSA) and 5% normal goat serum in Tris buffered saline containing tween 20 (TBS-T; 20 mM Tris pH 7.5, 136.8 mM NaCl, and 0.05% v/v Tween 20), and incubated with primary antibody followed by the appropriate secondary antibody. 3. Primary antibodies that were used include: monoclonal anti PSD-95 (ab-2723, Abcam), monoclonal anti Tyr-α-tubulin antibody (YL1/2) (VMA1864, Abcys, Paris, France), polyclonal anti Glu-α-tubulin antibody (L4) (AbC0101, Abcys, Paris, France), DyLight 488-labeled secondary goat anti-mouse IgG, DyLight 633-labeled secondary goat anti-rabbit IgG (KPL, Gaithersburg, Md., USA), Cy3-conjugated secondary goat anti-Rat IgG, (Jackson ImmunoResearch). 4. Images were collected with a Leica SP5 confocal laser scanning microscope (Mannheim, Germany) with 63× oil immersion optics, laser lines at 488, 561, 633 nm. Identical confocal laser scanning microscopy (CLSM) parameters (e.g., scanning line, laser light, gain, and offset etc.) were used for control and NAP treated cells.
For instance, a PSD-95 expression assay using primary cortical neuron cultures established from suitable animals may be performed to confirm a compound's activity in promoting cell plasticity. More specifically, primary cultures of neurons are prepared by first taking cerebral cortex tissue from newborn rats on postnatal day 1. The cerebral cortex tissue is then dissected and dissociated individually from each animal. Cells are fixed with ice cold methanol, blocked (e.g., with bovine serum albumin (BSA) and normal goat serum), and incubated with primary antibody (e.g., monoclonal antibody against PSD-95), optionally followed by the appropriate secondary antibody for imaging purposes. Images of primary neuronal cultures are taken and compared between cultures with or without being exposed to a test compound. An increased PSD-95 expression is indicative of the test compound being capable of promoting or protecting cell plasticity, especially neuronal plasticity.
Cerebral cortex tissue from newborn rats was dissected and dissociated individually from each pup with the Papain Dissociation System (PDS), (Worthington Biochemical Corporation) according to the manufacturer's instructions. Cortical neurons were maintained in Neurobasal medium (NB), (Gibco) supplemented with NeuroCult B27-SM1 ([…]), 1% Glutamax (Gibco), and grown on poly-D-lysine-coated cell culture glass cover slips.
Images were collected with a Leica SP5 confocal laser scanning microscope (Mannheim, Germany) with 63× oil immersion optics, laser lines at 488, 561, 633 nm or with LSM 510 META (Zeiss, Jena, Germany) confocal laser scanning microscope with 63× oil immersion optics, laser lines at 488, 568, 633 nm. When comparing fluorescence intensities, identical CLSM parameters (e.g., scanning line, laser light, gain, and offset etc.) were used. All of the fluorescent signals acquired were above the autofluorescent background as measured from a control slide stained with secondary antibody without a primary antibody. To compare the relative levels of protein expression, the average integrated density (AID) image analysis procedure was used for cell immunostains. In brief, integrated density is defined by the sum of the values of the pixels in the selected region of interest (ROI). This is equivalent to the product of Area and Mean Gray Value. AID for the positive stained area was determined by measuring the fluorescent intensity of the ROI, which is above the positive cut-off intensity. […]

[4] = test system: astrocytes; assay: MT organization in astrocytes (FIG. 14); format: cell-based, rat
Procedure: Newborn rats (Harlan, Jerusalem, Israel) were sacrificed by decapitation, and the brain was removed (D. E. Brenneman et al., J Pharmacol Exp Ther 309, 1190 (June, 2004)). The tissue was minced with scissors and placed in Hank's balanced salts solution 1 (S1), containing HBSS (Biological Industries, Beit Haemek, Israel), 15 mM HEPES buffer, pH 7.3 (Biological Industries, Beit Haemek, Israel), and 0.25% trypsin (Biological Industries) in an incubator at 37° C. 5% CO2 for 20 min. The cells were then placed in 5 mL of solution 2 (S2) containing 10% heat inactivated fetal serum (Biological Industries), 0.1% gentamycin sulphate solution (Biological Industries), and 0.1% penicillin-streptomycin-nystatin solution (Biological Industries) in Dulbecco's modified Eagle's medium (DMEM, Sigma, Rehovot, Israel). The cells were allowed to settle and are then transferred to a new tube containing 2.5 mL of S2 and triturated using a Pasteur pipette. Cell density was determined using a hemocytometer (Neubauer Improved, Germany) and 15×10^6 cells/15 mL S2 are inoculated into each 75-cm^2 flask (Corning, Corning, N.Y., USA). Cells are incubated at 37° C. 10% CO2. The medium was changed after 24 h, and cells are grown until confluent.
The flasks were shaken to dislodge residual neurons and oligodendrocytes that may be present. Flasks were then washed with 10 mL cold HBSS×1, HEPES 15 mM. 5 mL of versene-trypsin solution (BioLab, Jerusalem, Israel) were added to each flask, and the flasks are incubated at room temperature for 5 min to remove astrocytes. The flasks were shaken to dislodge the cells. The versenetrypsin solution was neutralized with 5 mL of S2. The cell suspension was collected and centrifuged at 100 g for 10 min. The supernatant was removed and the cells resuspended in S2. Cells were inoculated into 75-cm^2 flasks or plated in 35-mm dishes (Corning, Corning, N.Y., USA) and incubated until confluence at 37° C. 10% CO2. […]

[5] = test system: PC12 cells; conditions: ZnCl2 400 μM, peptide 10^−13M
Procedure: FIG. 15: Rat pheochromocytoma cells (PC12) were seeded on Poly-D-Lysine coated 96-well tissue culture dishes in high concentration (30,000 cells/well). On the day of the experiment the cells were treated with ZnCl2 (400 μM) either alone or in combination with different concentration of SKIP for 4 h. After 4 h the cell viability was analyzed by MTS assay. […] All values are from one experiment performed in hexplicate.
Rat pheochromocytoma cell (PC12, ATCC, Bethesda, Md., USA) were grown in 10-cm tissue culture dishes (Corning). The base medium for this cell line was RPMI-1640 Medium (Invitrogen) supplemented with 10% heat-inactivated horse serum, 5% fetal bovine serum and solution containing 100 U/ml penicillin together with […] streptomycin (Biological Industries, Beit Haemek, Israel). The cells were incubated in 95% air; 5% CO2 in a humidified incubator at 37° C. The medium was changed every 2 to 3 days. The cells were subcultured when cell density reached 4×10^6 cells/ml. The cells were split in a ratio of 1:4.
On the day before the experiment cells were to be harvested, re-suspended and seeded on tissue culture dishes. For cell viability measurements, cells were seeded on Poly-D-Lysine coated 96-well tissue culture dishes (Sigma-Aldrich) at a concentration of 3×10^4 cells/well.
The cell viability is measured by colorimetric method that determines the number of viable cells in culture. This method is based on the bio-reduction of the tetrazolium compound [3-(4,5-dimethylthiazol-2-yl)-5-(3-carboxymethoxyphenyl)-2-(4-sulfophenyl)-2H-tetrazolium; MTS] by living cells into a colored formazan product. This reaction is occurring in the presence of an electron coupling reagent (phenazine ethosulfate; PES). The amount of formazan product is measured by ELISA plate reader at 490 nm and is directly proportional to the number of living cells in culture (CellTiter 96® AQueous One Solution Cell Proliferation Assay; Promega, Madison, Wis., USA).

[6] = biological target: T2, Full-length human EB3 recombinant protein (human, UniProt Q9UPY8 1-281); assay: competition with soluble peptide on the NAP affinity column; western blot
T2 construct: mature; Full-length protein; also called recombinant EB3; MAPRE3
Procedure: as §1, with “6). […] In order to verify that EB3 was indeed eluted from the column, beads were taken from the column resin mixed with sample buffer and western blot analysis was performed (FIG. 6—"[…]" most right lane).” for “6).”

T1 sequence (Q9UPY8 whole entry): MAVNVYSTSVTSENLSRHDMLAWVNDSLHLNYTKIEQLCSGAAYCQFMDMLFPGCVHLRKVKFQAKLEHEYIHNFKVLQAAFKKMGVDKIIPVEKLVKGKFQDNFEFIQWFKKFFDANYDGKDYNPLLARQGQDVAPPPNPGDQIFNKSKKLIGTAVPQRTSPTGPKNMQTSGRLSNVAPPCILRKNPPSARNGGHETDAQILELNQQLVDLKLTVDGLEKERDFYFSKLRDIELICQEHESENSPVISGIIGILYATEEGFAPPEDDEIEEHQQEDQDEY
T2 sequence (Q9UPY8 whole entry): as above

NAPVTRIPQ was tested, and the “protection against cell death induced by zinc toxicity (MTS survival)” value (shortened to “protection against cell death induced”) [1] was “inactive”.

With NAPVAAAAQ [negative control peptide] the “competition for EB3 binding to column-bound NAP” value [2] was “no competition” and the “derivative peptides effect on PSD-95 density vs vehicle controls (FIG. 10c)” value [3] was “did not enhance PSD-95 staining; also recorded: not affected”.

For NAPVSRIPQ, the “protection against cell death induced” value [1] was “inactive”.

In the case of NAPVSAIPQ [negative control peptide], the “competition for EB3 binding to column-bound NAP” value [2] is reported as “no competition” and the “derivative peptides effect on PSD-95 density vs vehicle controls (FIG. 10c)” value [3] is reported as “did not enhance PSD-95 staining; also recorded: not affected”.

In the case of NAPVAIPQ [NAPVAIPQ (S5A)], the “activity of NAP-like peptide (FIG. 14)” value [4] is reported as “inactive”.

In the case of Acetyl-NAPVSKIPQ-NH2 (Ac-NAPVSKIPQ-NH2), the “protection against cell death induced” value [1] is reported as “provided protection against zinc toxicity”, the “protection against cell death induced” value ([1]; listed as Ac-SKIP) is reported as “significantly increased survival” and the “protection against cell death induced” value ([1]; listed as Acetyl-NAPVSKIPQ) is reported as “significantly increased survival”.

In the case of NAPVSIAQ [NAPVSIAQ (P7A)], the “activity of NAP-like peptide (FIG. 14)” value [4] is reported as “inactive” and the “effect on MT organization” value ([4]; 4 hours of incubation) is reported as “did not mimic NAP activity”.

In the case of “NAPVSGIPQ (synthetic novel peptide core sequence derived from hybrid microtubule end-binding protein 3 (EB3)-binding microtubule plus-end tracking proteins (+TIPs) and activity- dependent neurotrophic factor (ADNF) active core site (NAP)) [NAPVSGIPQ (SEQ ID NO:5)]”, the “protection against Zn toxicity (MTS viability vs Zn alone)” value [5] is reported as “showed protection”.

NAPVSKIPQ: binds [6].
